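Five concentrations, 48 hours, 96-well plates. TGI denotes the concentration required for complete inhibition of growth.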 *1 amine or outer side, *2 acyl side, *3 side chain or, on linkers, in order; H or OH if unused. Where a SMILES comes first, the peptide text is derived from it. Bridges are numbered along the chain shown (N, C = ends). [ ]: non-standard residue; d: D form. The star is where a group is joined. X34 = O=C(C(CCCCNO[*:3])N[*:1])[*:2]; Fmoc = O=C(OCC1c2ccccc2-c2ccccc21)*
What was measured:
Experiment in all cases: NCI tumour cell line growth inhibition, 48 h
UACC-62 melanoma = tested on: UACC-62 melanoma
SF-539 CNS = tested on: SF-539 CNS
OVCAR-4 ovarian = tested on: OVCAR-4 ovarian
RXF 393 renal = tested on: RXF 393 renal
A498 renal = tested on: A498 renal
SK-MEL-2 melanoma = tested on: SK-MEL-2 melanoma
SNB-19 CNS = tested on: SNB-19 CNS
SNB-75 CNS = tested on: SNB-75 CNS
TK-10 renal = tested on: TK-10 renal
MOLT-4 leukemia = tested on: MOLT-4 leukemia
SK-MEL-28 melanoma = tested on: SK-MEL-28 melanoma
HCC-2998 colon = tested on: HCC-2998 colon
NCI-H460 lung = tested on: NCI-H460 lung
COLO 205 colon = tested on: COLO 205 colon
CAKI-1 renal = tested on: CAKI-1 renal
RPMI-8226 leukemia = tested on: RPMI-8226 leukemia
EKVX NSCLC = tested on: EKVX NSCLC
DU-145 prostate = tested on: DU-145 prostate
MDA-MB-435 = tested on: MDA-MB-435

SMILES	TGI (UACC-62 melanoma)	TGI (SF-539 CNS)	TGI (OVCAR-4 ovarian)	TGI (RXF 393 renal)	TGI (A498 renal)	TGI (SK-MEL-2 melanoma)	TGI (SNB-19 CNS)	TGI (SNB-75 CNS)	TGI (TK-10 renal)	TGI (MOLT-4 leukemia)	TGI (SK-MEL-28 melanoma)	TGI (HCC-2998 colon)	TGI (NCI-H460 lung)	TGI (COLO 205 colon)	TGI (CAKI-1 renal)	TGI (RPMI-8226 leukemia)	TGI (EKVX NSCLC)	TGI (DU-145 prostate)	TGI (MDA-MB-435)
COc1ccc(NC(=O)C(C)Oc2ccc(OCC3CCCCC3)cc2)cc1 (centres undefined)	> 100 µM	> 100 µM	> 100 µM	> 100 µM	> 100 µM	> 100 µM	> 100 µM	> 100 µM	> 100 µM	> 100 µM	> 100 µM	> 100 µM	> 100 µM	–	–	–	–	–	–
COC(=O)C(Br)C1CCc2ccccc21 (centres undefined)	> 100 µM	–	> 100 µM	–	> 100 µM	–	> 100 µM	–	> 100 µM	> 100 µM	> 100 µM	> 100 µM	> 100 µM	> 100 µM	> 100 µM	> 100 µM	–	–	–
COc1ccc(/C(=C/n2ccnc2)C(O)c2ccc(OC)c(OC)c2)cc1OC (centres undefined)	–	> 100 µM	> 100 µM	> 100 µM	> 100 µM	> 100 µM	> 100 µM	> 100 µM	> 100 µM	> 100 µM	> 100 µM	–	> 100 µM	> 100 µM	–	> 100 µM	–	–	–
CN(C)c1snc2c1c(=O)n(C)c(=O)n2C	> 100 µM	> 100 µM	> 100 µM	–	> 100 µM	> 100 µM	> 100 µM	> 100 µM	> 100 µM	> 100 µM	> 100 µM	> 100 µM	> 100 µM	> 100 µM	> 100 µM	> 100 µM	> 100 µM	–	–
CN=C(N)c1ccc(N=C(N)c2ccc(C(N)=Nc3ccc(C(N)=NC)cc3)cc2)cc1	> 100 µM	> 100 µM	> 100 µM	> 100 µM	–	> 100 µM	> 100 µM	> 100 µM	> 100 µM	> 100 µM	> 100 µM	–	> 100 µM	> 100 µM	> 100 µM	> 100 µM	–	–	–
CCN(CC)Cc1ccc(C(=S)Nc2ccc(C)cc2)s1	28.1 µM	37.7 µM	71 µM	–	27.2 µM	30.2 µM	34.7 µM	–	–	41.6 µM	30.5 µM	25.6 µM	30.8 µM	31.7 µM	29.6 µM	46.8 µM	35.2 µM	56.7 µM	26.5 µM
CC(=O)O[C@@]12CO[C@@H]1C[C@@H](O)[C@@]1(C)C(=O)[C@H](O)C3=C(C)[C@@H](OC(=O)[C@H](O)[C@@H](NC(=O)c4ccccc4)c4ccccc4)C[C@@](O)([C@@H](OC(=O)c4ccccc4)C12)C3(C)C (some centres undefined)	–	0.0579 µM	> 100 µM	35.4 µM	> 100 µM	0.887 µM	> 100 µM	0.0815 µM	> 72.5 µM	> 42.5 µM	> 100 µM	0.0705 µM	25.1 µM	0.176 µM	> 100 µM	> 100 µM	> 100 µM	> 100 µM	–
CC1=NN(c2nc(N)nc(C/C(N)=N/O)n2)C(C)(C)C1	> 100 µM	> 100 µM	> 100 µM	–	> 100 µM	–	> 100 µM	> 100 µM	> 100 µM	> 100 µM	> 100 µM	> 100 µM	> 100 µM	> 100 µM	> 100 µM	> 100 µM	> 100 µM	> 100 µM	> 100 µM
C=CCN1/C(=C2\SC(=S)N(c3ccc(C)cc3)C2=O)Sc2c1nc[nH]c2=O	> 100 µM	> 100 µM	> 100 µM	> 100 µM	> 100 µM	> 100 µM	> 100 µM	–	> 100 µM	> 100 µM	> 100 µM	–	> 100 µM	> 100 µM	> 100 µM	> 100 µM	> 100 µM	–	–
NC(=O)CNC(=O)C1CCCN1C(=O)C1CCCCNOC(=O)CCC(NC(=O)OCC2c3ccccc3-c3ccccc32)C(=O)NC(Cc2c[nH]c3ccccc23)C(=O)N1 (centres undefined) (Fmoc-EW[X34]PG-NH2; ester 1-3; configuration not given here)	> 100 µM	> 100 µM	> 100 µM	> 100 µM	–	> 100 µM	> 100 µM	> 100 µM	> 100 µM	> 100 µM	> 100 µM	> 100 µM	> 100 µM	> 100 µM	–	> 100 µM	> 100 µM	> 100 µM	> 100 µM
C/C=C1\CN2CCc3c([nH]c4ccccc34)C2C=C1CCO (centres undefined)	> 340 µM	> 340 µM	–	> 340 µM	–	> 340 µM	> 340 µM	–	> 340 µM	> 340 µM	> 340 µM	> 340 µM	> 340 µM	> 340 µM	> 340 µM	> 340 µM	> 340 µM	–	–

Reference: PubChem BioAssay (NCI)
